Measured values from US20200121695A1, “COMPOSITIONS AND METHODS FOR TREATING ITCH, SKIN INFLAMMATION, AND PRURITUS” (priority 2017, published 2020).

Assay: Case report: with menstrual-cycle itching, elevated ALP and PBC/AIH overlap syndrome
Assay type: in vivo, human
Conditions: person, Ursodiol 300 mg three times a day plus mycophenolate mofetil 500 mg four times a day for 1 year, together with replacement of Nuva Ring by copper IUD and dietary changes
Description: The itching was predominantly concentrated on hands, feet, back, and stomach area, and the symptoms disappeared as soon as menstruation began. They previously used Nuva Ring for about three years, followed by approximately 5.5 year hiatus. The medical history and gynecological clinical examination were not unusual, with the exception of elevated liver enzymes having been discovered about two years prior to visit. […] The initial treatment thus comprised short-term moderate amounts of Prednisone, with the regiment starting about the time of re-start of the Nuva Ring use. Approximately two months after the start of Prednisone regimen the patient was diagnosed with an overlap syndrome of Primary Biliary Cholangitis/Cirrhosis (PBC) and Autoimmune Hepatitis (AIH). […] New treatment regimen was implemented. Nuva Ring was replaced with a non-hormonal intrauterine device (copper) to enable treatment with immunosuppressive drugs. Additionally steroid drugs, Ursodiol (300 mg three times a day) and mycophenolate mofetil (Cellcept, 500 mg, four times a day), regimen was started in order to reduce AST levels, and continued for 1 year. Finally dietary changes eliminating foods that are rich in zinc and vitamin B12 were effected.

SMILES | itching symptoms at the time of menstruation
COc1c(C)c2c(c(O)c1C/C=C(\C)CCC(=O)OCCN1CCOCC1)C(=O)OC2 [mycophenolate mofetil] | significant reduction of the itching symptoms
C[C@H](CCC(=O)O)[C@H]1CC[C@H]2[C@@H]3[C@@H](O)C[C@@H]4C[C@H](O)CC[C@]4(C)[C@H]3CC[C@]12C [Ursodiol] | significant reduction of the itching symptoms
